Consider 13 compounds from patent publication US6974804B2, “Esters” (Unilever Home & Personal Care USA, division of Conopco, Inc., priority 2000, dated 2005).

Assay type in all cases: physicochemical
Series [1] in a line: Visual assessment score (clarity of gel in 1 cm cuvette). As to conditions: for Visual: gel in 60:40 w/w Silkflo 364:DC245, score scale −12 to 8. The text has this:
A gel contained within a 1 cm thick cuvette was placed directly on to a sheet of white paper on which 21 sets of figures where printed in black. The size and thickness of the figures varied systematically and were numbered from −12 (the largest, thickest set) through 0 to 8 (the smallest thinnest set) The score given to each gel was the highest numbered set which could be read clearly through the gel, the higher the number, the higher the clarity.

Series [2] can be described thus: Stability testing of gels: crystal growth visible by eye on storage at 37° C. How it is done: Gels were made up using 10% structurant in a 60:40 mixture of Hydrogenated Polyisobutene (Panalene L14E):DC245. The gels, in sealed glass bottles, were left to stand for 18 hrs at room temperature, after which they were transferred to an oven thermostatically controlled to 37° C. Samples were checked periodically for signs of crystal growth visible by eye. REF1 is cellobiose octanonanoate.
Gels were made up and tested in accordance with the procedure in Example 6, as such or modified by employing a weight ratio of 9% of REF1 and 1% of an additional structurant as specified in Table 13 below.
The test procedure of Example 9 was repeated, but using ACB structurant REF2 alone as the structurant or to which a CHME structurant was added.

Series [3] in a line: Light transmission at 580 nm (% T). The note with it: 580 nm. The method, then:
The translucency of a composition may be measured by placing a sample of standardised thickness in the light path of a spectrophotometer and measuring transmittance, as a percentage of light transmitted in the absence of the gel.
This test was carried out using a dual-beam spectrophotometer. The sample of composition was poured hot into a 4.5 ml cuvette made of poly(methyl-methacrylate) (PMMA) and allowed to cool to an ambient temperature of 20-25° C. Such a cuvette gives a 1 cm thickness of composition. […] A transmittence measured at any temperature in the range from 20-25° C. is usually adequately accurate, but measurement is made at 22° C. if more precision is required.

Series [4] in a line: Gelling of water-immiscible cosmetic liquids in 96 well glass micro-titre plate. Details: key: gel; g4: gel after overnight (18 hrs) storage at 4° C.; g22: gel after overnight (18 hrs) storage at 22° C.; sg: soft gel; sg22: soft gel after overnight (18 hrs) storage at 22° C.; solution; *: the test at 4° C. was not carried out. The note with it: for gelling of ISA: 150° C. 2.5 hours, cooled to ambient. The method, then: In this Example, various samples of esterified cellobiose prepared as in Example 1 or 2 above, were used to gel water-immiscible cosmetic liquids, in accordance with the procedure given below, in which a large number of gels can be prepared simultaneously.
The samples were tested in a 96 well (8×12 rows) glass micro-titre plate. […] About 0.01 or 0.02 g of each esterified cellobiose material was placed into 8 consecutive wells in a single row, so that each well contained approximately 5% or 10% of the cellobiose ester. The balance in each well comprised the cosmetic liquid by addition of approximately 0.2 g of the respective liquid to each cell. A glass lid was placed on top of the plate. The plate was carefully placed in a thermostatically controlled fan-assisted oven set at 150° C. for 2.5 hours. The plate was removed from the oven and allowed to cool naturally to ambient laboratory temperature. The contents of the wells were assessed at the end of the cooling period, by visual inspection and by poking the contents of each well with a micro-spatula. The plates were stored at […] for 18 hours and the contents inspected, and further stored for 18 hours at 4° C. and inspected for a third time. The results obtained in the tests are summarised in Table 5 below, in which the legend is as follows: […]

The mark [5] stands for this setting: Ex 2.6:REF 4 at stated weight ratio, total 10% in 60:40 w/w Silkflo 364NF:DC245.
The mark [6] stands for this setting: 5% cellobiose ester in Fluid AP.
[7] abbreviates: 5% cellobiose ester in Mineral oil.
[8] abbreviates: 5% cellobiose ester in Polydecene.
[9] abbreviates: 10% cellobiose ester in Fluid AP.
The mark [10] stands for this setting: 10% cellobiose ester in Mineral oil.
Where [11] appears, read: 10% cellobiose ester in Polydecene.

On to “cellobiose heptanonanoate monocyclohexanoate [Ex 1.13]”, for which, in series [1], the Visual worked out at 6.
With `CCCCCCCCC(=O)OC[C@H]1O[C@@H](O[C@H]2[C@H](OC(=O)CCCCCCCC)[C@@H](OC(=O)CCCCCCCC)C(OC(=O)CCCCCCCC)O[C@@H]2COC(=O)CCCCCCCC)[C@H](OC(=O)CCCCCCCC)[C@@H](OC(=O)CCCCCCCC)[C@@H]1OC(=O)CCCCCCCC` (stereo partly drawn) [REF 1, cellobiose octanonanoate], the Observation entry in series [2] (10% structurant in 60:40 Hydrogenated Polyisobutene (Panalene L14E):DC245, after 18 hrs at RT) was “Small crystals visible in gel after”; in series [2] (10% structurant in 60:40 Hydrogenated Polyisobutene (Panalene L14E):DC245, after 18 hrs at RT, listed as REF1) it was “Small crystals visible in gel after 18”; in series [2] (10% structurant in 60:40 Panalene L14E:DC245, after 6 hrs at 37° C.), “More and bigger crystals after 6 hrs”; in series [2] (10% structurant in 60:40 Panalene L14E:DC245, after 6 hrs at 37° C., listed as REF1), “More and bigger crystals after 6 hrs at”; in series [2] (10% structurant in 60:40 Panalene L14E:DC245, after 3 days at 37° C.), “Crystals throughout gel after 3 days”; in series [2] (10% structurant in 60:40 Panalene L14E:DC245, after 3 days at 37° C., listed as REF1), 37° C.; Crystals throughout gel after 3 days.
Consider `CCCCCCCCCC(=O)OCC1OC(OC2C(COC(=O)CCCCCCCCC)OC(OC(=O)CCCCCCCCC)C(OC(=O)CCCCCCCCC)C2OC(=O)CCCCCCCCC)C(OC(=O)CCCCCCCCC)C(OC(=O)CCCCCCCCC)C1OC(=O)CCCCCCCCC` (mixture of isomers) [REF 4, reference compound], for which the “Clarity % T” value in series [3] (9% REF4 plus 1% of the named material) and in series [3] (setting [5]) was 0.36% in each case. Besides, the “Clarity Visual (appearance)” value in series [1] (9% REF4 plus 1% of the named material in 60:40 hydrogenated polydecene:DC245) is “opaque”. In series [1] (9% REF4 plus 1% of the named material, scale −12 to 8), the “Clarity Visual (assessment score)” value is reported as less than −12. Also, the “Clarity Visual Score” value in series [1] (setting [5]) is less than −12.
As to `CCCCCCCCCCCCCCCC(=O)OC1OC(COC(=O)CCCCCCCC)C(OC2OC(COC(=O)CCCCCCCC)C(OC(=O)CCCCCCCC)C(OC(=O)CCCCCCCC)C2OC(=O)CCCCCCCC)C(OC(=O)CCCCCCCC)C1OC(=O)CCCCCCCC` (mixture of isomers) [Ex 1.8], in series [2] (9% of REF1 and 1% of additional structurant, after 15 days at 37° C.), the Observations result was “No crystals after 15 days at 37 °C”. In addition, the “gelling of DC556” value in series [4] (5% cellobiose ester in DC556) and in series [4] (10% cellobiose ester in DC556) was “gel” in each case. For the same compound, the “gelling of Fluid AP” value in series [4] (setting [6]) and in series [4] (setting [9]) was “gel” throughout. Further, the “gelling of ISA” value in series [4] (5% cellobiose ester in ISA) and in series [4] (10% cellobiose ester in ISA) was “g22” in each case. For the same compound, the “gelling of Mineral oil” value in series [4] (setting [7]) and in series [4] (setting [10]) was “g22” each time. In addition, the “gelling of Polydecene” value in series [4] (setting [8]) and in series [4] (setting [11]) was “gel” throughout.
For “cellobiose heptanonanoate monocyclohexanoate [Ex 3.1]”, in series [1], the Visual came to 3.
Still for that read-out and setting: to “cellobiose heptanonanoate monocyclohexanoate [Ex 1.12]” belongs 3.
Regarding `CCCCCCCCCCCCCCCC(=O)OC1OC(COC(=O)CCCCCCCCC)C(OC2OC(COC(=O)CCCCCCCCC)C(OC(=O)CCCCCCCCC)C(OC(=O)CCCCCCCCC)C2OC(=O)CCCCCCCCC)C(OC(=O)CCCCCCCCC)C1OC(=O)CCCCCCCCC` (mixture of isomers) [Ex 2.12], the “gelling of DC556” value in series [4] (5% cellobiose ester in DC556) and in series [4] (10% cellobiose ester in DC556) was “gel” each time. In addition, the “gelling of Fluid AP” value in series [4] (setting [6]) and in series [4] (setting [9]) was “gel” in each case. For the same compound, the “gelling of ISA” value in series [4] (5% cellobiose ester in ISA) is given as “g22”; in series [4] (10% cellobiose ester in ISA), “gel”. The “gelling of Mineral oil” value in series [4] (setting [7]) and in series [4] (setting [10]) was “gel” each time. The “gelling of Polydecene” value in series [4] (setting [8]) and in series [4] (setting [11]) was “gel” each time.
On to `CCCCCCCCCCCCCC(=O)OC1OC(COC(=O)CCCCCCCC)C(OC2OC(COC(=O)CCCCCCCC)C(OC(=O)CCCCCCCC)C(OC(=O)CCCCCCCC)C2OC(=O)CCCCCCCC)C(OC(=O)CCCCCCCC)C1OC(=O)CCCCCCCC` (mixture of isomers) [Ex 1.24], for which the “gelling of DC556” value in series [4] (5% cellobiose ester in DC556) and in series [4] (10% cellobiose ester in DC556) was “gel” each time. In addition, the “gelling of Fluid AP” value in series [4] (setting [6]) and in series [4] (setting [9]) was “gel” in each case. The “gelling of ISA” value was “g22” in series [4] (5% cellobiose ester in ISA) and “gel” in series [4] (10% cellobiose ester in ISA). Besides, the “gelling of Mineral oil” value in series [4] (setting [7]) and in series [4] (setting [10]) was “g22” in each case. Moreover, the “gelling of Polydecene” value in series [4] (setting [8]) and in series [4] (setting [11]) was “gel” in each case.
As to `CCCCCCCCC(=O)OCC1OC(OC2C(COC(=O)CCCCCCCC)OC(OC(=O)CCCCC)C(OC(=O)CCCCCCCC)C2OC(=O)CCCCCCCC)C(OC(=O)CCCCCCCC)C(OC(=O)CCCCCCCC)C1OC(=O)CCCCCCCC` (mixture of isomers) [Ex 1.21], the “gelling of DC556” value in series [4] (5% cellobiose ester in DC556) is “g22”; in series [4] (10% cellobiose ester in DC556) it was “gel”. The “gelling of Fluid AP” value in series [4] (setting [6]) and in series [4] (setting [9]) was “gel” in each case. The “gelling of ISA” value in series [4] (5% cellobiose ester in ISA) is reported as “sg22”; in series [4] (10% cellobiose ester in ISA), “g22”. Also, the “gelling of Mineral oil” value in series [4] (setting [7]) and in series [4] (setting [10]) was “g22” in each case. In addition, the “gelling of Polydecene” value in series [4] (setting [8]) and in series [4] (setting [11]) was “gel” throughout.
Take “cellobiose heptanonanoate monocyclohexanoate [Ex 3.2]”: the Visual in series [1] worked out at 5.
Regarding `CCCCCCCCC(=O)OCC1OC(OC2C(COC(=O)CCCCCCCC)OC(OC(=O)CCCCCC)C(OC(=O)CCCCCCCC)C2OC(=O)CCCCCCCC)C(OC(=O)CCCCCCCC)C(OC(=O)CCCCCCCC)C1OC(=O)CCCCCCCC` (mixture of isomers) [Ex 1.22], the “gelling of DC556” value in series [4] (5% cellobiose ester in DC556) and in series [4] (10% cellobiose ester in DC556) was “g22” each time. Further, the “gelling of Fluid AP” value in series [4] (setting [6]) and in series [4] (setting [9]) was “gel” in each case. Further, the results for the “gelling of ISA” value in series [4] (5% cellobiose ester in ISA) and in series [4] (10% cellobiose ester in ISA) were “sg22” and “g22”, respectively. The “gelling of Mineral oil” value in series [4] (setting [7]) is recorded as “sol”; in series [4] (setting [10]) it was “g22”. Also, the “gelling of Polydecene” value in series [4] (setting [8]) and in series [4] (setting [11]) was “gel” each time.
Regarding `CCCCCCCCCC(=O)OCC1OC(OC2C(COC(=O)CCCCCCCCC)OC(OC(C)=O)C(OC(=O)CCCCCCCCC)C2OC(=O)CCCCCCCCC)C(OC(=O)CCCCCCCCC)C(OC(=O)CCCCCCCCC)C1OC(=O)CCCCCCCCC` (mixture of isomers) [Ex 2.4], in series [4] (5% cellobiose ester in DC556), the “gelling of DC556” value is given as “gel”. For the same compound, the “gelling of Fluid AP” value in series [4] (setting [6]) is “gel”. The “gelling of ISA” value in series [4] (5% cellobiose ester in ISA) is “gel”. In series [4] (setting [7]), the “gelling of Mineral oil” value is listed as “gel”. Further, the “gelling of Polydecene” value in series [4] (setting [8]) is “gel”.
“cellobiose heptanonanoate monocyclohexanoate [Ex 1.14]”: the “gelling of DC556” value in series [4] (5% cellobiose ester in DC556) and in series [4] (10% cellobiose ester in DC556) was “gel” each time. Further, the “gelling of Fluid AP” value in series [4] (setting [6]) and in series [4] (setting [9]) was “gel” each time. The “gelling of IPM” value is on record as “sol” in series [4] (5% cellobiose ester in IPM) and “g4” in series [4] (10% cellobiose ester in IPM). In addition, the “gelling of ISA” value is given as “g22” in series [4] (5% cellobiose ester in ISA) and “gel” in series [4] (10% cellobiose ester in ISA). Moreover, the “gelling of Mineral oil” value in series [4] (setting [7]) and in series [4] (setting [10]) was “gel” in each case. Also, the “gelling of Polydecene” value in series [4] (setting [8]) and in series [4] (setting [11]) was “gel” throughout. In addition, the Visual in series [1] came to 3.
